For the assay, the species on record is Rattus norvegicus. As to the kind of experiment: In vitro release of growth hormone by rat pituitary assay. In kind it is functional.

Molecules are shown by their SMILES. Square brackets hold non-standard residues; d marks the D form. Peptide text beside a SMILES is read from it. d2Nal = N[C@H](Cc1ccc2ccccc2c1)C(=O)O; 3Amb = NCc1cccc(C(=O)O)c1

A word on the EC50: it is the concentration at which the effect is half-maximal. For the compound `NCCCC[C@H](NC(=O)[C@@H](Cc1ccccc1)NC(=O)[C@@H](Cc1ccc2ccccc2c1)NC(=O)c1ccc(CN)s1)C(N)=O`, the EC50 came out at 210 nM.
Compound `NCCCC[C@H](NC(=O)[C@@H](Cc1ccccc1)NC(=O)[C@@H](Cc1ccc2ccccc2c1)NC(=O)c1ccccc1CN)C(N)=O` returned an EC50 of 85 nM.
`NCCCC[C@H](NC(=O)[C@@H](Cc1ccccc1)NC(=O)[C@@H](Cc1ccc2ccccc2c1)NC(=O)c1cc(CN)cs1)C(N)=O` displayed an EC50 of 675 nM.
Then `C[C@H](N)C(=O)N[C@@H](Cc1c[nH]cn1)C(=O)N[C@H](Cc1ccc2ccccc2c1)C(=O)N[C@H](Cc1ccccc1)C(=O)N[C@@H](CCCCN)C(N)=O`, with 6 nM.
Compound `NCCCC[C@H](NC(=O)[C@@H](Cc1ccccc1)NC(=O)[C@@H](Cc1ccc2ccccc2c1)NC(=O)c1sccc1CN)C(N)=O` displayed an EC50 of 27 nM.
`NCCCC[C@H](NC(=O)[C@@H](Cc1ccccc1)NC(=O)[C@@H](Cc1ccc2ccccc2c1)NC(=O)c1cccc(CN)c1)C(N)=O` (H-[3Amb][d2Nal][dF]K-NH2): the response was half-maximal at 7 nM (EC50).

For the origin of these results see ChEMBL document CHEMBL1151091, “Aminomethylthiophene-2-carboxylic acids as dipeptide mimetic in new growth hormone secretagogues” (Bioorg Med Chem Lett, 1997).
